Common to all, as to assay: NCI tumour cell line growth inhibition, 48 h
Assay [1] has as its system SK-MEL-2.
The test system of assay [2] is RXF 393.
Assay [3] relates to DU-145.
The subject of assay [4] is UACC-257.
Assay [5] deals with SF-268.
For assay [6], the system named is CCRF-CEM.
For assay [7], the system named is EKVX.
In assay [8] the test system is COLO 205.
The subject of assay [9] is OVCAR-4.
For assay [10], the system named is NCI-H460.
Assay [11] concerns HCT-15.
The subject of assay [12] is NCI-H226.
Assay [13] relates to K562.
The test system of assay [14] is HCT-116.
Assay [15] deals with ACHN.
Assay [16] deals with HT-29.
Assay [17] concerns UO-31.
The test system of assay [18] is HOP-92.
Assay [19] deals with MDA-N.
Assay [20] concerns SR.

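96-well plates; 48 h exposure; 5 concentrations. Endpoints by linear interpolation between flanking doses. Not reached: highest tested concentration assigned. Here, GI50 denotes the concentration required for 50% inhibition of growth.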 Activity calls are given as the source filed them. Cut-off read from the data, not from the text of the source: active = GI50 up to about 1.1 µM and inactive = higher.

We go through 11 compounds from ChEMBL document CHEMBL1201862, “PubChem BioAssay data set” (2004).

For `CCCCS/C(=C(/C#N)C(N)=O)c1cc2c([nH]1)CCCC2`, the GI50 in assay [1] was 12.1 µM (inactive); in assay [2], 14.9 µM (inactive); in [3] it was 12.1 µM (inactive); in assay [4], 14.3 µM (inactive); in assay [5] it was 13.8 µM (inactive); in assay [6], 6.7 µM (inactive). The GI50 in assay [7] was 11.2 µM (inactive); in assay [8], 14 µM (inactive); in [9], 16.1 µM (inactive); in assay [10], 18.7 µM (inactive); in [11], 9.71 µM; in assay [12], 15.1 µM (inactive). For the same compound, the GI50 in [13] is 3.68 µM (inactive); in [14] it was 11 µM (inactive); in assay [15] it was 16.3 µM (inactive); in [16] it was 4.69 µM (inactive); in [17], 13.1 µM (inactive); in assay [18], 17.1 µM (inactive). Moreover, in [19], the GI50 was 4.19 µM (inactive).
Turning to `COC(=O)c1ccc2c(c1)sc1nc(-c3ccc(OC)cc3)cn12`, the GI50 is > 100 µM (inactive) in assay [1]; 69.8 µM (inactive) in assay [2]; > 100 µM (inactive) in assay [3]; 49 µM (inactive) in assay [4]; 83.8 µM (inactive) in assay [5]; 39.9 µM (inactive) in assay [6]. For the same compound, the GI50 in assay [7] was > 100 µM (inactive); in [8] it was 31.9 µM (inactive); in [9] it was > 100 µM (inactive); in assay [10], > 100 µM (inactive); in assay [11] it was greater than 100 µM; in assay [12], > 100 µM (inactive). Also, the GI50 in assay [13] was 38.2 µM (inactive); in assay [14], > 100 µM (inactive); in assay [15], > 100 µM (inactive); in [16], 83.4 µM (inactive); in assay [17] it was > 100 µM (inactive); in [18], 24.7 µM (inactive). Also, in assay [19], the GI50 is 78.9 µM (inactive).
`CN(C1=NCCO1)c1cccc2c1CCCC2`: the GI50 in assay [1] is 4.09 µM (inactive); in [2], 3.64 µM (inactive); in assay [3], 9.55 µM (inactive); in assay [4], 3.92 µM (inactive); in [5], 5.33 µM (inactive); in [20] it was 1.21 µM (inactive). In addition, the GI50 in [6] is 1.15 µM (inactive); in assay [7] it was 8.55 µM (inactive); in [8], 1.89 µM (inactive); in [9] it was 3.05 µM (inactive); in [10], 4.01 µM (inactive); in assay [11], 3.48 µM. For the same compound, the GI50 in assay [12] was 1.44 µM (inactive); in assay [13] it was 4.78 µM (inactive); in assay [14], 2.99 µM (inactive); in assay [15], 3.18 µM (inactive); in [16], 2.43 µM (inactive); in assay [19] it was 5.18 µM (inactive).
Regarding `c1cc(-c2ccc(-c3ccc(-c4ccc(-c5cccc6nsnc56)[nH]4)c4nsnc34)[nH]2)c2nsnc2c1`, the GI50 in assay [1], in assay [3], in assay [5], in assay [6], in assay [7] and in assay [8] was > 100 µM (inactive) throughout. Moreover, the GI50 in [9] was > 100 µM (inactive); in assay [10] it was > 100 µM (inactive); in assay [11], greater than 100 µM; in assay [12] it was > 100 µM (inactive); in assay [13], > 100 µM (inactive); in assay [14], > 100 µM (inactive). In addition, the GI50 in [15], in assay [16], in assay [17], in assay [18] and in assay [19] was > 100 µM (inactive) each time.
For the compound `COc1ccc2cc(C(=O)O)ccc2c1OC`, the GI50 was > 100 µM (inactive) in assay [1]; 69.5 µM (inactive) in assay [3]; > 100 µM (inactive) in assay [4]; > 100 µM (inactive) in [5]; > 100 µM (inactive) in [20]; > 100 µM (inactive) in assay [6]. Besides, the GI50 in assay [8] is > 100 µM (inactive); in assay [10] it was > 100 µM (inactive); in assay [11], greater than 100 µM; in [12] it was > 100 µM (inactive); in assay [13] it was > 100 µM (inactive); in assay [14] it was > 100 µM (inactive). Besides, the GI50 in [15], in [16], in assay [17] and in assay [19] was > 100 µM (inactive) throughout.
Consider `Nc1c(C(=O)O)c2ccc([N+](=O)[O-])cc2c(=O)n1-c1nc2ccccc2s1`, for which the GI50 in assay [1], in assay [2], in [3], in assay [5], in assay [20] and in [6] was > 100 µM (inactive) each time. Besides, the GI50 is > 100 µM (inactive) in assay [7]; > 100 µM (inactive) in [8]; > 100 µM (inactive) in [9]; > 100 µM (inactive) in [10]; greater than 100 µM in [11]; > 100 µM (inactive) in [12]. The GI50 in [13], in assay [14], in [15], in [16], in assay [17] and in [19] was > 100 µM (inactive) each time.
Turning to `CCOC(=O)C1=CC(C)(C(=O)OCC)Nc2c(nc(SC)[nH]c2=O)N1` (stereo not drawn), the GI50 in assay [1], in assay [2], in [3], in assay [4], in assay [5] and in [6] was > 10 µM (inactive) each time. The GI50 in [7] was > 10 µM (inactive); in assay [8] it was > 10 µM (inactive); in assay [9], > 10 µM (inactive); in assay [10], > 10 µM (inactive); in [11], greater than 10 µM; in assay [12] it was > 10 µM (inactive). In addition, the GI50 in assay [13], in assay [14], in assay [15], in [16], in [17] and in assay [18] was > 10 µM (inactive) in each case. Besides, the GI50 in assay [19] is > 10 µM (inactive).
Consider `O=C1NC(=S)NC(=O)C1C(c1ccc([N+](=O)[O-])cc1)C1C(=O)NC(=S)NC1=O.c1ccncc1`, for which the GI50 in assay [1], in [2], in assay [3], in [4], in [6] and in assay [7] was > 100 µM (inactive) throughout. In addition, the GI50 was > 100 µM (inactive) in assay [8]; > 100 µM (inactive) in assay [9]; > 100 µM (inactive) in assay [10]; greater than 100 µM in assay [11]; > 100 µM (inactive) in assay [12]; > 100 µM (inactive) in [13]. For the same compound, the GI50 in assay [14], in assay [15], in [16], in [17], in assay [18] and in assay [19] was > 100 µM (inactive) throughout.
As to `CC1(c2ccccc2)CCN(C2CC2)CO1` (stereo not drawn), the GI50 in assay [1] is > 100 µM (inactive); in assay [2] it was 26.9 µM (inactive); in assay [3] it was 29.6 µM (inactive); in assay [4], 22.4 µM (inactive); in assay [5] it was 16.8 µM (inactive); in [20], 25.5 µM (inactive). For the same compound, the GI50 in assay [6] is 32.4 µM (inactive); in assay [7], 20.1 µM (inactive); in [8] it was 21.6 µM (inactive); in assay [9], 18.8 µM (inactive); in assay [10] it was 14.9 µM (inactive); in assay [11] it was 16.5 µM. The GI50 in assay [12] was > 100 µM (inactive); in assay [13], 15.3 µM (inactive); in [14], 19.9 µM (inactive); in [15], 17.9 µM (inactive); in [16], 17.9 µM (inactive); in assay [17], 18.5 µM (inactive). Also, in assay [19], the GI50 is 15.1 µM (inactive).
Regarding `COc1cc(O)c2c(=O)c(OC)c(-c3ccc4c(c3)OCO4)oc2c1OC`, the GI50 in [1] is > 50 µM (inactive); in assay [2], 18.9 µM (inactive); in [3], > 50 µM (inactive); in assay [4] it was > 50 µM (inactive); in assay [5], 21.7 µM (inactive); in assay [6], > 50 µM (inactive). Besides, the GI50 in assay [7] was 39 µM (inactive); in assay [8], > 50 µM (inactive); in assay [9], > 50 µM (inactive); in assay [10], > 50 µM (inactive); in assay [11], greater than 50 µM; in assay [12], > 50 µM (inactive). Moreover, the GI50 in [13] was > 50 µM (inactive); in assay [14], 49.7 µM (inactive); in assay [15], > 50 µM (inactive); in assay [16], > 50 µM (inactive); in [17], > 50 µM (inactive); in assay [18], 7.6 µM (inactive). Also, the GI50 in assay [19] is > 50 µM (inactive).
Consider `O=C1Cc2c([nH]c3ccc(Br)cc23)-c2cc(O)c(O)cc2N1`, for which the GI50 in assay [1], in assay [2], in assay [3], in [4], in assay [5] and in assay [7] was > 100 µM (inactive) throughout. Further, the GI50 is > 100 µM (inactive) in assay [8]; > 100 µM (inactive) in [9]; > 100 µM (inactive) in assay [10]; greater than 100 µM in assay [11]; > 100 µM (inactive) in assay [12]; > 100 µM (inactive) in [13]. Also, the GI50 in assay [15], in assay [17], in [18] and in [19] was > 100 µM (inactive) each time.
